For six compounds, IC50 results are on record in patent publication US20260285863A1, “COMPOUNDS CAPABLE OF MODULATING GPR65” (Pathios Therapeutics Limited, priority 2023, published 2026).

The target of the assay is T1, human recombinant GPR65 (Homo sapiens, UniProt Q8IYL9).
T1 construct: host or cells: 1321N1 human astrocytoma cells (1321N1-hrGPR65)
T1 sequence (Q8IYL9 whole entry): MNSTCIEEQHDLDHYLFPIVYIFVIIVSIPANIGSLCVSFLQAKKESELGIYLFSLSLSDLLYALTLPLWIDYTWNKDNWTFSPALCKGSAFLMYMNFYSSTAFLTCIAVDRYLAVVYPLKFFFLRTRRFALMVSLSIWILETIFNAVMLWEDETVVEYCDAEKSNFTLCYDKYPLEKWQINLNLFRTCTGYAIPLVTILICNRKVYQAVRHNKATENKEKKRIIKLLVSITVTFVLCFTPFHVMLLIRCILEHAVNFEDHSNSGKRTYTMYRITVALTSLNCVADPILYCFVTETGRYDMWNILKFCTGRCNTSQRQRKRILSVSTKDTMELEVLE
Description: Human GPR65 cAMP HTRF antagonist assay. It is filed as cell-based. Particulars: 1321N1-hrGPR65 cells, assay pH 7.2, cAMP HTRF; read-out: hGPR65 IC50. The essentials:
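1321N1 cells stably expressing human GPR65 were preincubated 30 min at room temperature with compound in KRH pH 7.6 containing 1 mM IBMX and 200 μM EDTA. They were then acid-stimulated to pH 7.2 for 30 min, with pH 7.9 as control. cAMP was read by HTRF (665/620 ratio), and IC50 came from normalised 4-parameter logistic fits.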
For orientation: In TR-FRET formats the signal depends on donor and acceptor labels being close together.
For the compound `CC(C)(C)OC(=O)N1CCC(Oc2ccc(-c3cc(F)c(NC(=O)N4[C@H]5CC[C@@H]4c4c[nH]c(=O)cc4C5)cc3Cl)cn2)C1` (stereo partly drawn) [Compound 25, tert-Butyl 3-((5-(2-chloro-5-fluoro-4-((6S,9R)-3-oxo-3,5,6,7,8,9-hexahydro-2H-6,9-epiminocyclohepta[c]pyridine-10-carboxamido)phenyl)pyridin-2-yl)oxy)pyrrolidine-1-carboxylate], the IC50 – broadly, the concentration at which inhibition is half-maximal – was below 500 nM.
`O=C(Nc1cc(Cl)c(-c2ccc(OCC(F)(F)F)nn2)cc1F)N1[C@H]2CC[C@@H]1c1n[nH]c(=O)cc1C2` [Compound 6, (6S,9R)-N-(5-chloro-2-fluoro-4-(6-(2,2,2-trifluoroethoxy)pyridazin-3-yl)phenyl)-3-oxo-3,5,6,7,8,9-hexahydro-2H-6,9-epiminocyclohepta[c]pyridazine-10-carboxamide]: the IC50 was below 500 nM.
In the case of `O=C(Nc1cc(Cl)c(COc2ccc(OCC(F)(F)F)cn2)cc1F)N1[C@H]2CC[C@@H]1c1c[nH]c(=O)cc1C2` [Compound 54, (6S,9R)-N-(5-chloro-2-fluoro-4-(((5-(2,2,2-trifluoroethoxy)pyridin-2-yl)oxy)methyl)phenyl)-3-oxo-3,5,6,7,8,9-hexahydro-2H-6,9-epiminocyclohepta[c]pyridine-10-carboxamide], the IC50 is below 500 nM.
In the case of `O=C(Nc1cc(Cl)c(-c2ccc(OC[C@@H]3CC3(F)F)nc2)cc1F)N1[C@H]2CC[C@@H]1c1c[nH]c(=O)cc1C2` [Compound 85, (6S,9R)-N-(5-Chloro-4-(6-(((S)-2,2-difluorocyclopropyl)methoxy)pyridin-3-yl)-2-fluorophenyl)-3-oxo-3,5,6,7,8,9-hexahydro-2H-6,9-epiminocyclohepta[c]pyridine-10-carboxamide], the IC50 is below 500 nM.
The value for `O=C(Nc1cc(Cl)c(-c2ccc(OC3CCCC3)nc2)cc1F)N1[C@H]2CC[C@@H]1c1c[nH]c(=O)cc1C2` [Compound 10, (6S,9R)-N-(5-chloro-4-(6-(cyclopentyloxy)pyridin-3-yl)-2-fluorophenyl)-3-oxo-3,5,6,7,8,9-hexahydro-2H-6,9-epiminocyclohepta[c]pyridine-10-carboxamide] was below 500 nM; that for `O=C(Nc1cc(Cl)c(Cl)cc1OCC1CC1(F)F)N1[C@H]2CC[C@@H]1c1n[nH]c(=O)cc1C2` (stereo partly drawn) [Compound 88, (6S,9R)-N-(4,5-Dichloro-2-((2,2-difluorocyclopropyl)methoxy)phenyl)-3-oxo-3,5,6,7,8,9-hexahydro-2H-6,9-epiminocyclohepta[c]pyridazine-10-carboxamide] was above 5000 nM.
